The source of these data is patent US9907479B2, “Contribution of oxidative stress to AF electrograms” (NORTHWESTERN UNIVERSITY, priority 2013, dated 2018).

Assay [1] relates to AF EGMs in HF. Put plainly: Acute ROS blockade during induced AF in pacing-induced HF dogs, epicardial AF EGM mapping. The assay is classed as in vivo, dog. As to conditions: for effect on AF EGM parameters (DF, OI, FI, ShEn): apocynin 10 mg/kg. How it is done: HF: In 4 animals, rapid RV pacing was performed at 240 beats/min for 3-4 weeks to induce HF. AF was then induced and AF EGMs recorded by an epicardial, multielectrode plaque (130 electrodes; […]). Apocynin (an NAPDH oxidase inhibitor) was then given (10 mg/kg) acutely. After apocynin administration, AF slowed and then terminated within 5 minutes (in every experiment). […] After apocynin washout (90 minutes), AF was re-induced and mito-TEMPO was given (0.7 mg/kg). […] The atrial tissue was then removed and examined for O^2- generation using lucigenin chemiluminescence. […] Thus, AF EGMs in HF are very sensitive to acute blockade of NADPH oxidase and mitochondrial ROS and AF EGM organization in response to ROS blockade closely correlates with the amount of O^2- in underlying tissue.

Assay [2] concerns AF EGMs in HF. Put plainly: EGM-guided targeted gene injection at ROS responsive PLA quadrant in HF dog, AF EGM mapping. Type of assay: in vivo. As to conditions: one HF dog, given during AF, 10 mg/kg, before gene injection. As for the experimental part: In one dog, HF was induced by RV pacing at 240 bpm×3 weeks. AF was then induced and recorded in the PLA by high density epicardial plaques (130 electrodes; […]). […] Real time analysis of AF EGMs was performed. The PLA was divided into 4 equal quadrants as shown in FIG. 15A and AF characteristics analyzed for each quadrant. […] One week later, AF mapping was performed again, in the absence and presence of apocynin. […] NOX2 expression (assessed by RT-PCR) was 70% lower in the injected quadrant than in neighboring, un-injected PLA.

A further assay has as its system AF EGMs in a RAP model. Kind of assay: Acute ROS blockade in rapid atrial pacing (RAP) persistent AF model, AF EGM mapping. The assay is classed as in vivo, dog. How it is done: RAP: In 2 animals, rapid atrial pacing was performed at 600 bpm for 3-4 weeks to induce persistent AF. Apocynin was given as in HF above.
Setting [3] is: HF dogs, induced AF, mito-TEMPO 0.7 mg/kg.
[4] abbreviates: RAP dogs (600 bpm, 3-4 weeks), persistent AF, apocynin given as in HF.

On to `COc1cc(C(C)=O)ccc1O` [apocynin, Apocynin], for which the “time to AF termination after administration” value in the assay on AF EGMs in HF [1] (HF dogs (RV pacing 240 beats/min, 3-4 weeks), induced AF, 10 mg/kg given acutely, in every experiment) was at most 5 min. Besides, in the assay on AF EGMs in HF [1] (setting [3]), the “effect on AF EGM parameters (DF, OI, FI, ShEn)” value is recorded as “organization of all AF EGM parameters”. In addition, the “effect on AF” value with AF EGMs in HF [2] is on record as “organization of AF followed by AF termination”. In the assay on AF EGMs in a RAP model (setting [4]), the “change in DF” value is given as “significant decrease” and the “change in OI” value is given as “increase”. Besides, in the assay with AF EGMs in a RAP model (RAP dogs, 2 animals), the “termination of AF” value is “In one animal, there was termination of AF”.

Turning to `CC1(C)CC(NC(=O)C[P+](c2ccccc2)(c2ccccc2)c2ccccc2)CC(C)(C)N1[O]` [mito-TEMPO], in the assay on AF EGMs in HF [1] (HF dogs, AF re-induced after apocynin washout (90 minutes), mito-TEMPO 0.7 mg/kg), the “effect on AF (slowing, termination)” value is “gradual slowing and termination of AF in every animal”. Moreover, the “effect on AF EGM parameters (DF, OI, FI, ShEn)” value in the assay on AF EGMs in HF [1] (setting [3]) was “organization of all AF EGM parameters”.
